{"source": "paper PMC7211202", "about": "(Investigational New Drugs, 2019)", "tested_on": "P53WT solid tumors or multiple myeloma", "assay": "Tumor response (RECIST 1.1, Macdonald, IMWG criteria)", "assay_type": "in vivo, human", "protocol": "Efficacy response was assessed using revised Response Evaluation Criteria in Solid Tumors (RECIST), version 1.1 [25] Macdonald criteria for GBM [26] or International Myeloma Working Group (IMWG) response criteria for multiple myeloma.", "key": {"[1]": {"details": "240-mg dose expansion, ER + PR+ breast cancer"}, "[2]": {"details": "240-mg dose expansion, ER + PR– breast cancer"}, "[3]": {"details": "240-mg dose expansion, breast cancer"}, "[4]": {"details": "240-mg dose expansion, multiple myeloma"}, "[5]": {"details": "240-mg dose expansion, other solid tumors"}}, "note": "“And” between values parts separate entries of the source, which are not always exact repeats. Equal values may be shown once. “Also recorded” adds a separate entry of the source.", "data": [{"smiles": "CC(C)[C@@H](CS(=O)(=O)C(C)C)N1C(=O)[C@@](C)(CC(=O)O)C[C@H](c2cccc(Cl)c2)[C@H]1c1ccc(Cl)cc1", "note": "[AMG 232]", "values": [{"measurement": "Stable disease as a best result", "setting": "240-mg dose expansion, DDLPS", "result": "7 of 10"}, {"measurement": "median duration of stable disease", "setting": "240-mg dose expansion, DDLPS", "result": 2.0, "unit": "months"}, {"measurement": "duration of stable disease, range", "setting": "[1]", "result": "0.9–4.0 months"}, {"measurement": "median duration of stable disease", "setting": "[1]", "result": 2.0, "unit": "months"}, {"measurement": "duration of stable disease, range", "setting": "[2]", "result": "0.9–3.8 months"}, {"measurement": "median duration of stable disease", "setting": "[2]", "result": 1.4, "unit": "months"}, {"measurement": "Stable disease as a best result", "setting": "240-mg dose expansion, GBM", "result": "six of 10 and 6 of 10"}, {"measurement": "median duration of stable disease", "setting": "240-mg dose expansion, GBM", "result": 1.8, "unit": "months"}, {"measurement": "duration of stable disease, range", "setting": "240-mg dose expansion, WDLPS", "result": "1.9–6.1 months"}, {"measurement": "median duration of stable disease", "setting": "240-mg dose expansion, WDLPS", "result": 3.9, "unit": "months"}, {"measurement": "Stable disease as a best result", "setting": "[3]", "result": "7 of 12"}, {"measurement": "duration of stable disease, range", "setting": "[3]", "result": "1.7–4.0 months"}, {"measurement": "median duration of stable disease", "setting": "[3]", "result": "1.4–2.0 months and 2.0 months"}, {"measurement": "Stable disease as a best result", "setting": "[4]", "result": "5 of 10"}, {"measurement": "duration of stable disease, range", "setting": "[4]", "result": "1.2–2.0 months"}, {"measurement": "Stable disease as a best result", "setting": "[5]", "result": "10 of 16"}, {"measurement": "median duration of stable disease", "setting": "[5]", "result": 3.3, "unit": "months"}, {"measurement": "Patients with progressive disease", "setting": "240-mg dose expansion, overall", "result": "15 (22%) n (%)"}, {"measurement": "Patients with stable disease", "setting": "240-mg dose expansion, overall", "result": "45 (66%) n (%)"}, {"measurement": "duration of stable disease, range", "setting": "240-mg dose expansion, overall", "result": "0.5–12.9 months"}, {"measurement": "median duration of stable disease", "setting": "240-mg dose expansion, overall", "result": 2.0, "unit": "months"}, {"measurement": "Patients with unconfirmed partial responses", "setting": "central evaluation", "result": 4, "unit": "%"}, {"measurement": "Duration of unconfirmed partial response", "setting": "central evaluation, patient with WDLPS", "result": 2.4, "unit": "months"}, {"measurement": "Duration of unconfirmed partial response", "setting": "central evaluation, patient with breast cancer", "result": 2.0, "unit": "months"}, {"measurement": "Duration of unconfirmed partial response", "setting": "central evaluation, patient with squamous cell carcinoma", "result": 0.1, "unit": "months"}, {"measurement": "Patients with stable disease", "setting": "dose escalation", "result": "31 (80%) n (%)"}, {"measurement": "duration of stable disease, range", "setting": "dose escalation", "result": "0.7–22.4 mo"}, {"measurement": "median duration of stable disease", "setting": "dose escalation", "result": 3.1, "unit": "months"}, {"measurement": "Patients with non-complete response/non-progressive disease", "setting": "dose escalation, based on non-target lesions", "result": "2 (5%) n (%)"}, {"measurement": "Objective responses", "setting": "local evaluation, dose escalation and expansion", "result": "no responses; also recorded: no objective response"}]}]}
